# From patent publication US11447482B1, “Imidazopyridine and oxazolopyridine derivatives and analogs thereof, methods of preparation thereof, methods of HIF-2A pathway inhibition, and induction of ferroptosis” (KUDA Therapeutics, Inc., priority 2019, dated 2022)
# Biological target: HIF-2α transcriptional activity
# Test: Hypoxia-responsive element-driven luciferase (HRE-Luc) assay
# Format: cell-based, human
# Details: 786-0 CCRCC cells stably expressing HRE-Luc, 24 hours treatment
# Description: Screens for inhibitory activity of compounds described herein were performed using 786-0 CCRCC cells that stably express HRE-Luc: 5 copies of the hypoxia-responsive element (HRE) fused to the pGL3 luciferase reporter (Promega Corp, Madison Wis.). 786-0 cells are pVHL deficient and thus constitutively express HIF-2α independently of cellular oxygen tension (Maxwell, Wiesener et al. 1999). Since 786-0 cells lack HIF-1α, HRE-driven luciferase activity is primarily HIF-2α driven, and has been previously validated (Koh, Lemos et al. 2011). Cells were maintained at log phase growth in Dulbecco's […] (DMEM) with 10% FBS in a humidified incubator at 37° C. with 5% CO2. For screening assays, cells were seeded at a density of 4,000 cells in 50 μl of complete media/well in quadruplicate wells/point in a 96-well plate. 24 hours later, 50 μl of a 2× concentration of test compound was added to each well. Compounds were diluted from a 5-10 mM stock in DMSO and final concentrations of DMSO in each well in controls and treated wells were kept constant at ≤0.6% DMSO. After 24 hours' treatment, luciferase activity was measured using the Steady-Glo Luciferase assay system (Promega Corp) according to the manufacturer's protocol. Cell viability was measured in quadruplicate parallel wells using resazurin as recommended by the manufacturer (R&D systems, Minneapolis, Minn.). Data for luciferase and resazurin were normalized to DMSO treated controls (defining 100%) and wells containing assay reagent but no cells (defining 0%), and graphed using the log inhibitor versus normalized response option in Prism7 Graphpad software. Representative data determined using Steady-Glo luciferase and resazurin are shown in FIGS. 1A and 1B respectively, with error bars showing standard error of the mean (SEM).
row,IC50 [µM],SMILES
1,28.3,"COc1ccc(-c2nnc(Nc3nc4c(Cl)nccc4[nH]3)o2)cc1 [KD022, N-(4-chloro-1H-imidazo[4,5-c]75yridine-2-yl)-5-(4-methoxyphenyl)-1,3,4-oxadiazol-2-amine]"

# Same assay, conditions: Homo sapiens; 786-0 CCRCC cells stably expressing HRE-Luc, 24 hours treatment
row,IC50 [µM],SMILES
1,19.9,"Fc1ccc(-c2nnc(Nc3nc4ccnc(-c5ccc6c(c5)OCO6)c4[nH]3)o2)cc1 [KD030, N-(4-(Benzo[d][1,3]dioxol-5-yl)-3H-imidazo[4,5-c]pyridin-2-yl)-5-(4-fluorophenyl)-1,3,4-oxadiazol-2-amine]"
2,6.1,"COc1ccc(-c2nnc(Nc3nc4ncccc4o3)o2)cc1 [KD029, N-(5-(4-Methoxyphenyl)-1,3,4-oxadiazol-2-yl)oxazolo[4,5-b]pyridin-2-amine]"
3,22.6,"COc1nccc2[nH]c(Nc3nnc(-c4ccc(OC(C)C)cc4)o3)nc12 [KD041, 5-(4-Isopropoxyphenyl)-N-(4-methoxy-1H-imidazo[4,5-c]pyridin-2-yl)-1,3,4-oxadiazol-2-amine]"
4,7.6,"COc1ccc(-c2nnc(Nc3nc4c(OC)nccc4[nH]3)o2)cn1 [KD038, N-(4-Methoxy-1H-imidazo[4,5-c]pyridin-2-yl)-5-(6-methoxypyridin-3-yl)-1,3,4-oxadiazol-2-amine]"
5,1.94,"COc1ccc(-c2nnc(Nc3nc4c(OC)nccc4[nH]3)o2)cc1F [KD032, 5-(3-Fluoro-4-methoxyphenyl)-N-(4-methoxy-1H-imidazo[4,5-c]pyridin-2-yl)-1,3,4-oxadiazol-2-amine]"
6,> 100,"CN1CCN(c2cc3[nH]c(Nc4nnc(-c5ccc(F)cc5)o4)nc3cn2)CC1 [KD010, 5-(4-Fluorophenyl)-N-(6-(4-methylpiperazin-1-yl)-1H-imidazo[4,5-c]pyridin-2-yl)-1,3,4-oxadiazol-2-amine]"
7,> 100,"COc1nccc2[nH]c(Nc3nnc(-c4ccc(C(C)(C)C)cc4)o3)nc12 [KD042, 5-(4-(tert-Butyl)phenyl)-N-(4-methoxy-1H-imidazo[4,5-c]pyridin-2-yl)-1,3,4-oxadiazol-2-amine]"
8,3.7,"COc1nccc2[nH]c(Nc3nnc(-c4ccc(C#N)cc4)o3)nc12 [KD031, 4-(5-((4-Methoxy-1H-imidazo[4,5-c]pyridin-2-yl)amino)-1,3,4-oxadiazol-2-yl) benzonitrile]"
9,9.12,"COc1nccc2[nH]c(Nc3nnc(-c4ccc(C)cc4)o3)nc12 [KD028, N-(4-methoxy-1H-imidazo[4,5-c]pyridin-2-yl)-5-(p-tolyl)-1,3,4-oxadiazol-2-amine]"
10,8.16,"COc1ccc2[nH]c(Nc3nnc(-c4ccc(F)cc4)o3)nc2n1 [KD003, 5-(4-Fluorophenyl)-N-(5-methoxy-1H-imidazo[4,5-b]pyridin-2-yl)-1,3,4-oxadiazol-2-amine]"
11,> 100,"CS(=O)(=O)C1CCN(c2cc3[nH]c(Nc4nnc(-c5ccc(F)cc5)o4)nc3cn2)CC1 [KD015, 5-(4-Fluorophenyl)-N-(6-(4-(methylsulfonyl)piperidin-1-yl)-1H-imidazo[4,5-c]pyridin-2-yl)-1,3,4-oxadiazol-2-amine]"
12,15.4,"Fc1ccc(-c2nnc(Nc3nc4cnc(N5CCOCC5)cc4[nH]3)o2)cc1 [KD009, 5-(4-Fluorophenyl)-N-(6-morpholino-1H-imidazo[4,5-c]pyridin-2-yl)-1,3,4-oxadiazol-2-amine]"
13,40.3,"Fc1ccc(-c2nnc(Nc3nc4cnc(Cl)cc4[nH]3)o2)cc1 [KD004, N-(6-Chloro-1H-imidazo[4,5-c]pyridin-2-yl)-5-(4-fluorophenyl)-1,3,4-oxadiazol-2-amine]"
14,23.8,"Cc1cncc2nc(Nc3nnc(-c4ccc(F)cc4)o3)[nH]c12 [KD006TFA, 5-(4-Fluorophenyl)-N-(7-methyl-1H-imidazo[4,5-c]pyridin-2-yl)-1,3,4-oxadiazol-2-amine]"
15,2.72,"COc1nccc2[nH]c(Nc3nnc(-c4ccc5c(c4)OCO5)o3)nc12 [KD026, N-(4-Methoxy-1H-imidazo[4,5-c]pyridin-2-yl)-5-(benzo[d][1,3]dioxol-5-yl)-1,3,4-oxadiazol-2-amine]"
16,6.86,"COc1nccc2[nH]c(Nc3nnc(-c4ccc(OC5CC5)cc4)o3)nc12 [KD040, 5-(4-Cyclopropoxyphenyl)-N-(4-methoxy-1H-imidazo[4,5-c]pyridin-2-yl)-1,3,4-oxadiazol-2-amine]"
17,52.3,"COc1ccc2nc(Nc3nnc(-c4ccc(F)cc4)o3)sc2n1 [KD008, 5-(4-Fluorophenyl)-N-(5-methoxythiazolo[5,4-b]pyridin-2-yl)-1,3,4-oxadiazol-2-amine]"
18,16.3,"Fc1ccc(-c2nnc(Nc3nc4cncc(N5CCOCC5)c4[nH]3)o2)cc1 [KD017, 5-(4-Fluorophenyl)-N-(7-morpholino-1H-imidazo[4,5-c]pyridin-2-yl)-1,3,4-oxadiazol-2-amine]"
19,2.83,"COc1nccc2[nH]c(Nc3nnc(-c4ccc(N(C)C)cc4)o3)nc12 [KD027, N-(4-Methoxy-1H-imidazo[4,5-c]pyridin-2-yl)-5-(4-(dimethylamino)phenyl)-1,3,4-oxadiazol-2-amine]"
20,72.7,"COc1cccc(-c2nccc3nc(Nc4nnc(-c5ccc(F)cc5)o4)[nH]c23)c1 [KD018, 5-(4-Fluorophenyl)-N-(4-(3-methoxyphenyl)-3H-imidazo[4,5-c]pyridin-2-yl)-1,3,4-oxadiazol-2-amine]"
21,37.6,"Fc1ccc(-c2nnc(Nc3nc4cnc(Cl)nc4[nH]3)o2)cc1 [KD013, N-(2-Chloro-9H-purin-8-yl)-5-(4-fluorophenyl)-1,3,4-oxadiazol-2-amine]"
22,32.6,"COc1nccc2[nH]c(Nc3nnc(-c4ccc(C(F)(F)F)cc4)o3)nc12 [KD019, N-(4-methoxy-1H-imidazo[4,5-c]pyridin-2-yl)-5-(4-(trifluoromethyl)phenyl)-1,3,4-oxadiazol-2-amine]"
23,16.1,"Fc1ccc(-c2nnc(Nc3nc4cnc(C(F)(F)F)cc4[nH]3)o2)cc1 [KD005HCL, 5-(4-Fluorophenyl)-N-(6-(trifluoromethyl)-1H-imidazo[4,5-c]pyridin-2-yl)-1,3,4-oxadiazol-2-amine]"
24,16.5,"COc1nccc2[nH]c(Nc3nnc(-c4ccc(OC(F)(F)F)cc4)o3)nc12 [KD020, N-(4-methoxy-1H-imidazo[4,5-c]pyridin-2-yl)-5-(4-(trifluoromethoxy)phenyl)-1,3,4-oxadiazol-2-amine]"
25,10.2,"Fc1ccc(-c2nnc(Nc3nc4ccnc(N5CCOCC5)c4[nH]3)o2)cc1 [KD016, 5-(4-Fluorophenyl)-N-(4-morpholino-3H-imidazo[4,5-c]pyridin-2-yl)-1,3,4-oxadiazol-2-amine]"
